# Assay results reported in PMC9963659, “Novel 2-Thiouracil-5-Sulfonamide Derivatives: Design, Synthesis, Molecular Docking, and Biological Evaluation as Antioxidants with 15-LOX Inhibition” (Molecules, 2023).
# Key:
# [1] = Lipid peroxidation assay (FeCl2/H2O2-stimulated linoleic acid peroxidation); type: biochemical; conditions: mean ± SEM of three experiments
# [2] = DPPH radical scavenging assay; type: biochemical; conditions: mean ± SEM of three experiments
# Procedure: The antioxidant potential of all target compounds (3–9) was determined using DPPH radical scavenging assay in comparison with ascorbic acid (AA) as the control treatment.
# The mechanism of antioxidants as DPPH radical scavengers is based on their hydrogen-donation ability as hydrogen atoms or an electron transfer from the compound to the DPPH to form DPPH-H. The results of DPPH reduction are presented in Table 2, Figure 7.
# The DPPH scavenging activity of all novel synthesized compounds (3–9) was measured as previously described (see Supplementary Materials).
# 1-Biological Evaluation Details: a-In-vitro Assays for biological antioxidant Activity
# - DPPH scavenging method.
# A 96-well plate was filled with 100 µL of the investigated compounds at various concentrations (12.5, 25, 50, 100, and 200 µg/mL ). The plate was then incubated at room temperature for 30 min while being protected from light by adding 100 µL of 100µM DPPH methanolic solution to each well. At a λ517 nm. the solution's absorbance was measured.
# The positive control was ascorbic acid, and the negative control was DMSO. According to the following equation, the percentage of DPPH scavenging activity was determined:
# % of DPPH scavenging = [(A control -A sample) / A control] x100. where A control is the absorbance of the control reaction (with all reagents except the test compound), and A sample is the absorbance of the test sample. Linear regression analysis was performed to calculate drug concentration showing 50% free radical inhibition activity (IC50). All tests were performed in triplicates. […]
# [3] = Hydrogen peroxide scavenging assay; type: biochemical; conditions: mean ± SEM of three experiments
# Procedure: H2O2 assay is used to estimate the scavenging power of the target compounds (4–9) to H2O2.
# The hydrogen peroxide (H2O2) scavenging activity of all novel synthesized compounds 3–9 was measured as previously reported (see Supplementary Materials).
# 1-Biological Evaluation Details: a-In-vitro Assays for biological antioxidant Activity […]
# Linear regression analysis was performed to calculate drug concentration showing 50% free radical inhibition activity (IC50). All tests were performed in triplicates.
# -Scavenging of hydrogen peroxide
# In this method, the decay or loss of hydrogen peroxide can be quantified spectrophotometrically at 230 nm when a scavenger is incubated with it. The procedure was applied with a few changes. In phosphate buffered saline, hydrogen […]
# peroxide (20 mM) solution was prepared in phosphate buffered saline (PBS, pH 7.4). In order to make different concentrations of 1 ml of the tested substances (3–9) or standards in methanol, 2 ml of hydrogen peroxide solution in PBS was added. After 10 minutes, the absorbance of H2O2 was measured at 230 nm in comparison to an ascorbic acid (AA) reference solution that contained phosphate buffer but no H2O2.
# % of H2O2 scavenging = [(A control -A sample) / A control] x100. […]
Compound,Lipid Peroxidation IC50 [1],DPPH IC50 [2],H2O2 IC50 [3],melting point
"O=C1O[C@H]([C@@H](O)CO)C(O)=C1O [Ascorbic acid, reference compound]",36.0 ± 1.30 µg/mL,12.80 ± 0.90 µg/mL,23.0 ± 1.37 µg/mL,
"CC(=O)c1cccc(NS(=O)(=O)c2c[nH]c(=S)[nH]c2=O)c1 [Compound 3, N-(3-Acetylphenyl)-4-oxo-2-thioxo-1,2,3,4-tetrahydropyrimidine-5-sulfonamide]",>100 µg/mL,80.0 ± 0.70 µg/mL,>100 µg/mL,318 to 320 °C
"O=C(CBr)c1cccc(NS(=O)(=O)c2c[nH]c(=S)[nH]c2=O)c1 [Compound 8, N-[3-(bromoacetyl)phenyl]-4-oxo-2-thioxo-1,2,3,4-tetrahydropyrimidine-5-sulfonamide]",>100 µg/mL,70.27 ± 1.17 µg/mL,>100 µg/mL,305 to 307 °C

# Now from value to compound:
Lipid Peroxidation IC50 [1],DPPH IC50 [2],H2O2 IC50 [3],melting point,Compound
>100 µg/mL,50.5 ± 0.79 µg/mL,>100 µg/mL,240 to 242 °C,"O=C(C=Cc1cccc([N+](=O)[O-])c1)c1cccc(NS(=O)(=O)c2c[nH]c(=S)[nH]c2=O)c1 [Compound 4a, N-{3-[(2E)-3-(3-nitrophenyl)prop-2-enoyl]phenyl}-4-oxo-2-thioxo-1,2,3,4-tetrahydro pyrimidine-5-sulfonamide]"
>100 µg/mL,44.3 ± 1.67 µg/mL,95.0 ± 1.40 µg/mL,283 to 285 °C,"O=C(/C=C/c1cccc(Cl)c1)c1cccc(NS(=O)(=O)c2c[nH]c(=S)[nH]c2=O)c1 [Compound 4b, N-{3-[(2E)-3-(3-chlorophenyl)prop-2-enoyl]phenyl}-4-oxo-2-thioxo-1,2,3,4-tetra hydropyrimidine-5-sulfonamide]"
>100 µg/mL,43.0 ± 0.50 µg/mL,>100 µg/mL,270 to 272 °C,"O=C(/C=C/c1cccc(F)c1)c1cccc(NS(=O)(=O)c2c[nH]c(=S)[nH]c2=O)c1 [Compound 4c, N-{3-[(2E)-3-(3-fluorophenyl)prop-2-enoyl]phenyl}-4-oxo-2-thioxo-1,2,3,4-tetra hydropyrimidine-5-sulfonamide]"
>100 µg/mL,40.0 ± 1.70 µg/mL,80.0 ± 0.70 µg/mL,287 to 289 °C,"Cc1cccc(/C=C/C(=O)c2cccc(NS(=O)(=O)c3c[nH]c(=S)[nH]c3=O)c2)c1 [Compound 4d, N-{3-[(2E)-3-(3-methylphenyl)prop-2-enoyl]phenyl}-4-oxo-2-thioxo-1,2,3,4-tetra hydropyrimidine-5-sulfonamide]"
